Reference: PMC5344539, “Nematode neuropeptides as transgenic nematicides” (PLoS Pathogens, 2017)
Entries after “also recorded” stand apart in the source; their conditions may differ.

Experiments:
mixed-stage C. elegans = assay: C. elegans chemotaxis assay (non-target); format: in vivo, Caenorhabditis elegans; conditions: worms soaked in 100 μM uNLP 24 h, counted after 1 h, 8 replicates
Protocol: C. elegans wild-type N2 Bristol strain were obtained from the C. elegans Genomics Center and maintained on a Escherichia coli (strain OP50) lawn on nematode growth medium (NGM) agar plates (3 g/l NaCl, 17 g/l agar, 2.5 g/l peptone, 5 mg/l cholesterol, 25 mM KH2PO4 (pH 6.0), 1 mM CaCl2, 1 mM MgSO4) at 20°C [70]. Chemotaxis assays were performed in a 9 cm diameter Petri dish on NGM agar which was split into a positive and negative side with a central ‘dead zone’ of 1.5 cm diameter. 100 mixed-staged C. elegans were washed three times in M9 buffer and soaked in 100 μM PPN uNLP, or M9 vehicle control for 24 hours. 2 μl of 50 mM sodium acetate, 0.5% pyrazine, 0.5% benzaldehyde or 0.5% diacetyl was spotted onto the positive side, 2 μl of ddH20 was spotted onto the negative side. Pyrazine, benzaldehyde and diacetyl volatile attractants were assayed immediately whereas the water soluble sodium acetate was assayed 18 hours following addition to the plate. Assays were maintained in the dark at 20°C, and counted after 1 hour. Eight replicates were conducted for each C. elegans attraction assay.

M. incognita J2s [1] = assay: Chemosensory (chemotaxis) assay of uNLP pre-treated J2s towards tomato root exudate; format: in vivo, Meloidogyne incognita
Protocol: (§1) Predicted uNLPs from both M. incognita and G. pallida were synthesised by EZBiolab and dissolved into pH adjusted ddH2O to make a 5 mM stock which was aliquoted and stored at -20°C. J2s of both M. incognita and G. pallida were incubated for 24 hours in 200 μl of each peptide in a 24 well plate (SPL Lifesciences, South Korea) at a defined concentration.
(§2) A 60 mm Petri dish was divided into two segments, a positive and a negative side, with a 0.5 cm 'dead zone' either side of the centre point. The petri dish was filled with 15 ml of 0.25% w/v agar which was allowed to solidify. 3 ml of 0.25% w/v agar slurry in spring water (pH 7, agitated with a magnetic stirrer for several hours to give a smooth consistency) was added to the petri dish and spread evenly over the surface. Root diffusate (attractant) and water only (control) 0.25% agar plugs were embedded in the agar slurry, either side of the assay arena. Root diffusate was collected from 10 tomato plants, aged 3–6 weeks in 1 litre pots, by pouring 500 ml of ddH20 through the soil three times. Diffusate from each plant was combined, filter sterilised and stored at 4°C for a maximum of 1 month. Root diffusate agar plugs were made by melting 1.25% agar in ddH20, cooling to 50°C before mixing with 4 parts of root diffusate. The agar was then allowed to solidify at room temperature. 100 uNLP pre-treated M. incognita or G. pallida J2s were added by pipette to the centre of the plate. J2s which moved out of the 'dead zone' after 3 hours were counted and their location (+/-) scored. The distribution of J2s were used to create a chemotaxis index for each plate, which formed one replicate, a total of 10 replicates where completed for each uNLP treatment.

G. pallida J2s = assay: as above; format: in vivo, Globodera pallida
Protocol: as §1, §2

M. incognita J2s [2] = assay: Plant protection assay, B. subtilis secreting uNLPs; format: in vivo, Meloidogyne incognita; conditions: Fig 4B; peptide secreted by transgenic B. subtilis culture in tomato invasion arena with 500 J2s; control = 100%; mean
Protocol: Tomato seeds were sterilised with 2.5% NaOCl for 15 minutes, washed 5 times in ddH20 and germinated on 0.5% Murashige and Skoog plates at 23°C. […] Invasion assays were performed by mixing 500 pre-treated M. incognita or G. pallida J2s with agar slurry and a single tomato seedling (2 days post germination) in a 6 well plate. Assays were left at 23°C for 24 hours in the case of M. incognita and at 18°C for 24 hours in the case of G. pallida under a 16 hour light and 8 hour darkness cycle. Seedlings were stained using acid fuschin [69] and the number of nematodes within the roots counted. At least five seedlings were used for M. incognita infections assays, with at least 15 seedlings used for G. pallida infections assays (due to increased variation).
B. subtilis were grown overnight in LB media containing ampicillin (100 μg/ml) at 37°C with shaking, and harvested in the log phase of growth determined by measuring OD600nm. Five ml of culture at 0.5 OD was spun down and the pellet mixed with 3 ml of agar slurry and 500 J2s from either G. pallida or M. incognita. C. reinhardtii clones were grown at 23°C with shaking, cultures in the log phase were measured at OD750 and 5 ml of culture at 0.5 OD was pelleted by centrifugation. C. reinhardtii pellets were mixed with 3 ml of agar slurry and 500 J2s from either G. pallida or M. incognita. Plant invasion assays were performed as described above. […]

[3] = 100 μM uNLP, 24 h, relative to controls

With “SFDSFTGPGFTGLD [Mi-NLP-15b, predicted unamidated NLP perfectly conserved between M. incognita and G. pallida; synthesised, also secreted from transgenic microbes]” the CI score (mixed-stage C. elegans; Fig 5A, attractant sodium acetate (50 mM), control 0.4269) was 0.3142, the CI score (mixed-stage C. elegans; Fig 5B, attractant pyrazine (0.5%), control 0.4904) was 0.4959 and the CI score (mixed-stage C. elegans; Fig 5C, attractant benzaldehyde (0.5%), control 0.7026) was 0.7032. The CI score (mixed-stage C. elegans; Fig 5D, attractant diacetyl (0.5%), control 0.6638) was 0.664, the “effect on chemosensation (in words)” value (M. incognita J2s [1]; [3]) was “inhibit chemosensation; also recorded: inhibited” and the CI score (M. incognita J2s [1]; Fig 1A, J2s incubated in 100 μM uNLP for 24 h, tomato cv. Moneymaker root exudate vs water agar plugs, counted after 3 h, mean of 10 replicates of 100 J2s, control 0.4426) was -0.3408. The CI score (M. incognita J2s [1]; Fig 3A, 100 pM peptide, 24 h, control 0.4133, mean) was 0.03117, the CI score (M. incognita J2s [1]; Fig 3A, 1 nM peptide, 24 h, control 0.4133, mean) was -0.07105 and the CI score (M. incognita J2s [1]; Fig 3A, 10 nM peptide, 24 h, control 0.4133, mean) was -0.1741. For the same sequence, the CI score (M. incognita J2s [1]; Fig 3A, 100 nM peptide, 24 h, control 0.4133, mean) was -0.1195, the CI score (M. incognita J2s [1]; Fig 3A, 1 µM peptide, 24 h, control 0.4133, mean) was -0.1344 and the CI score (M. incognita J2s [1]; Fig 3A, 10 µM peptide, 24 h, control 0.4133, mean) was -0.03579. The CI score (M. incognita J2s [1]; Fig 3A, 100 µM peptide, 24 h, control 0.4133, mean) was -0.3782, the CI score (M. incognita J2s [1]; Fig 3A, concentration printed as 22:00:00, 24 h, control 0.4133, mean) was -0.1553 and the “lowest concentration inhibiting chemosensation” value (M. incognita J2s [1]; serial dilution, 24 h exposure (Fig 3)) was ≤ 10 pM. The “effect on chemosensation (in words)” value (G. pallida J2s; [3]) was “inhibits G. pallida chemotaxis”, the CI score (G. pallida J2s; Fig 2A, J2s incubated in 100 μM uNLP for 24 h, tomato cv. Moneymaker root exudate vs water agar plugs, counted after 3 h, mean of 10 replicates of 100 J2s, control 0.4154) was -0.04762 and the “% Invasion” value (M. incognita J2s [2]) was 26.63%.
